Assay results reported in PubChem BioAssay (NCI).
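Exposure lasted 48 hours, with cells grown in 96-well plates and compounds tested at five concentrations. At the GI50, growth is halved. TGI denotes the concentration required for complete inhibition of growth.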

Experiments:
Assay in all cases: DTP human tumour cell line panel, 48 h
UO-31 renal = system: UO-31 renal
U251 CNS = system: U251 CNS
NCI-H23 lung = system: NCI-H23 lung
SW-620 colon = system: SW-620 colon
LOX IMVI melanoma = system: LOX IMVI melanoma
SF-539 CNS = system: SF-539 CNS
CCRF-CEM leukemia = system: CCRF-CEM leukemia
SK-MEL-5 melanoma = system: SK-MEL-5 melanoma
MCF7 breast = system: MCF7 breast
HOP-92 NSCLC = system: HOP-92 NSCLC

Structure (SMILES) | TGI (UO-31 renal) [µM] | TGI (U251 CNS) [µM] | TGI (NCI-H23 lung) [µM] | TGI (SW-620 colon) [µM] | TGI (LOX IMVI melanoma) [µM] | TGI (SF-539 CNS) [µM] | TGI (CCRF-CEM leukemia) [µM] | TGI (SK-MEL-5 melanoma) [µM] | TGI (MCF7 breast) [µM] | TGI (HOP-92 NSCLC) [µM] | GI50 (UO-31 renal) [µM] | GI50 (U251 CNS) [µM] | GI50 (NCI-H23 lung) [µM] | GI50 (SW-620 colon) [µM] | GI50 (LOX IMVI melanoma) [µM] | GI50 (SF-539 CNS) [µM] | GI50 (CCRF-CEM leukemia) [µM] | GI50 (SK-MEL-5 melanoma) [µM] | GI50 (MCF7 breast) [µM] | GI50 (HOP-92 NSCLC) [µM]
COc1cc(N=Nc2cccc(S(=O)(=O)O)c2)c(C)cc1N=Nc1ccc(/C=C/c2ccc(N=[N+]([O-])c3ccc(/C=C/c4ccc(N=Nc5cc(C)c(N=Nc6cccc(S(=O)(=O)O)c6)cc5OC)cc4)c(S(=O)(=O)O)c3)cc2S(=O)(=O)O)cc1 | > 100 | > 100 | > 100 | > 100 | > 100 | > 100 | > 100 | > 100 | > 100 | > 100 |  |  |  |  |  |  |  |  |  | 
COC(=O)C(C)N1C(=O)c2ccccc2I1OC(C)=O (stereo not given) | > 100 | > 100 | > 100 | 29.5 | 34.8 | > 100 | 45.5 | > 100 | > 100 | > 100 | 54.2 | 34.8 | 40.3 | 15.5 | 16.1 | 31.7 | 18.1 | > 100 | 30.7 | > 100
CC(C)(C)OC(=O)NC(Cc1ccccc1)C(=O)N[C@H]1c2ccsc2/C(=N/O)[C@H]1O (stereo not given in full) | > 100 | > 100 | > 100 | > 100 | > 100 | > 100 | > 100 | > 100 | > 100 | > 100 |  |  |  |  |  |  |  |  |  | 
